From the supplement of paper PMC10307832

Experiments:
Assay in all cases: relative viability (nuclei count vs DMSO), 5 days (fraction); higher = more cells survive
Dactolisib + Trametinib = compound: Cn1c(=O)n(-c2ccc(C(C)(C)C#N)cc2)c2c3cc(-c4cnc5ccccc5c4)ccc3ncc21 [Dactolisib] + CC(=O)Nc1cccc(-n2c(=O)n(C3CC3)c(=O)c3c(Nc4ccc(I)cc4F)n(C)c(=O)c(C)c32)c1 [Trametinib] (partner 0.02 µM)
Summary of the method: (§1)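 Relative viability is defined as nuclei in treated wells over nuclei in vehicle wells. Duplicate plates were run and medians reported. Lung cancer cell lines in 1536-well plates were dosed by pin tool one day after seeding, with one drug or with a fixed anchor-drug dose plus five library-drug doses (not always all listed) in √10 steps, and nuclei were counted after 5 days.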

AZ505 + Bortezomib = compound: C1CCC(CC1)N(CCNCCC2=C3C(=C(C=C2)O)NC(=O)CO3)C(=O)CCNCCC4=CC(=C(C=C4)Cl)Cl [AZ505] + CC(C)C[C@H](NC(=O)[C@H](Cc1ccccc1)NC(=O)c1cnccn1)B(O)O [Bortezomib] (partner 0.002 µM)
Summary of the method: as §1

AZ505 + Dasatinib = compound: C1CCC(CC1)N(CCNCCC2=C3C(=C(C=C2)O)NC(=O)CO3)C(=O)CCNCCC4=CC(=C(C=C4)Cl)Cl [AZ505] + Cc1nc(Nc2ncc(C(=O)Nc3c(C)cccc3Cl)s2)cc(N2CCN(CCO)CC2)n1 [Dasatinib] (partner 0.075 µM)
Summary of the method: as §1

Dactolisib + Foretinib = compound: Cn1c(=O)n(-c2ccc(C(C)(C)C#N)cc2)c2c3cc(-c4cnc5ccccc5c4)ccc3ncc21 [Dactolisib] + COc1cc2c(Oc3ccc(NC(=O)C4(C(=O)Nc5ccc(F)cc5)CC4)cc3F)ccnc2cc1OCCCN1CCOCC1 [Foretinib] (partner 0.25 µM)
Summary of the method: as §1

Cell Line	relative viability (Dactolisib + Trametinib; first compound 0.002 µM)	relative viability (Dactolisib + Trametinib; first compound 0.006325 µM)	relative viability (Dactolisib + Trametinib; first compound 0.02 µM)	relative viability (Dactolisib + Trametinib; first compound 0.06325 µM)	relative viability (Dactolisib + Trametinib; first compound 0.2 µM)	relative viability (AZ505 + Bortezomib; first compound 0.08 µM)	relative viability (AZ505 + Bortezomib; first compound 0.253 µM)	relative viability (AZ505 + Bortezomib; first compound 0.8 µM)	relative viability (AZ505 + Bortezomib; first compound 2.53 µM)	relative viability (AZ505 + Bortezomib; first compound 8 µM)	relative viability (AZ505 + Dasatinib; first compound 0.08 µM)	relative viability (AZ505 + Dasatinib; first compound 0.253 µM)	relative viability (AZ505 + Dasatinib; first compound 0.8 µM)	relative viability (AZ505 + Dasatinib; first compound 2.53 µM)	relative viability (AZ505 + Dasatinib; first compound 8 µM)	relative viability (Dactolisib + Foretinib; first compound 0.002 µM)	relative viability (Dactolisib + Foretinib; first compound 0.006325 µM)	relative viability (Dactolisib + Foretinib; first compound 0.02 µM)	relative viability (Dactolisib + Foretinib; first compound 0.06325 µM)	relative viability (Dactolisib + Foretinib; first compound 0.2 µM)
NCI-H1975	0.36	0.292	0.323	0.191	0.161	0.333	0.41	0.335	0.327	0.356	0.343	0.358	0.425	0.343	0.495	1.06	0.897	0.715	0.454	0.334
CAL-12T	0.343	0.312	0.248	0.213	0.184	0.946	0.82	0.835	0.936	1.01	0.466	0.585	0.381	0.413	0.472	1.25	1.09	0.972	0.898	0.241
NCI-H1623											0.488	0.466	0.598	0.479	0.612	0.907	0.882	0.768	0.596	0.418
HCC-44	1.14	1.13	1.08	0.952	0.737	0.865	0.883	0.879	0.915	0.86										
EKVX	0.368	0.377	0.258	0.229	0.213	0.992	0.906	0.986	1.09	0.992	0.556	0.543	0.539	0.494	0.504	0.598	0.743	0.652	0.715	0.568
NCI-H1651	0.816	0.825	0.822	0.599	0.452	0.882	0.956	0.909	0.927	1.03	0.47	0.416	0.386	0.441	0.49	0.918	0.782	0.561	0.321	0.345
NCI-H1944	0.429	0.408	0.364	0.23	0.22						0.212	0.188	0.246	0.203	0.224	1.13	0.914	0.852	0.425	0.392
NCI-H1703						0.351	0.383	0.366	0.358	0.458							0.389	0.381	0.281	0.325
Calu-6						0.969	1.07	0.906	0.915	1.12						0.826	0.915	0.879	0.531	0.543
EBC-1						0.479	0.519	0.452	0.533	0.515						0.102	0.0977	0.103	0.103	0.0903
A-427	0.669	0.637	0.694	0.4	0.369	0.928	0.978	1.03	0.917	0.997	0.659	0.693	0.622	0.749	0.682	1.2	1.05	0.873	0.56	0.46
NCI-H2347	0.277	0.262	0.263	0.158	0.295		0.801	0.75		0.681	0.254				0.279	0.848	1	0.693	0.765	0.486
NCI-H1355	0.45	0.37	0.384	0.215	0.203	1.13	1.19	1.16	1.25	1.16	0.695	0.674	0.603	0.702	0.748	1.05	0.902	0.664	0.509	0.223
NCI-H358	0.123	0.149	0.124	0.104	0.106						0.226	0.145	0.192	0.115	0.167	0.738	0.769	0.623	0.312	0.165
PC-3 [JPC-3]	0.718	0.673	0.76	0.595	0.451	0.735	0.768	0.684	0.775	0.771	0.848	0.968	0.864	0.937	0.858	1.13	1.06	1.03	0.816	0.565
NCI-H2228	0.688	0.4	0.383	0.218	0.144	0.907	1.15	0.856	0.864	0.828	0.447	0.421	0.51	0.457	0.443	0.875	0.675	0.406	0.191	0.181
HOP-62	0.429	0.349	0.369	0.23	0.195	0.911	0.82	1.01	0.839	0.945	0.528	0.644	0.484	0.598	0.64	1.26	1.1	0.974	0.747	0.516
HARA	0.872	0.549	0.732	0.259	0.218	1.04	1.01	0.914	1.03	0.916	0.191	0.229	0.367	0.318	0.217	1.12	0.878	0.771	0.763	0.225
NCI-H838	0.456	0.35	0.34	0.179	0.145	0.805	0.609	0.761	0.564	0.884	0.233	0.273	0.298	0.28	0.308	1.1	0.876	0.606	0.288	0.342
NCI-H1755	0.779	0.759	0.724	0.611	0.486	0.952	0.988	0.949	0.961	0.93	0.393	0.51	0.43	0.442	0.474	0.903	0.924	0.936	0.676	0.691

Cell Line	relative viability (Dactolisib + Trametinib; first compound 0.002 µM)	relative viability (Dactolisib + Trametinib; first compound 0.006325 µM)	relative viability (Dactolisib + Trametinib; first compound 0.02 µM)	relative viability (Dactolisib + Trametinib; first compound 0.06325 µM)	relative viability (Dactolisib + Trametinib; first compound 0.2 µM)	relative viability (AZ505 + Bortezomib; first compound 0.08 µM)	relative viability (AZ505 + Bortezomib; first compound 0.253 µM)	relative viability (AZ505 + Bortezomib; first compound 0.8 µM)	relative viability (AZ505 + Bortezomib; first compound 2.53 µM)	relative viability (AZ505 + Bortezomib; first compound 8 µM)	relative viability (AZ505 + Dasatinib; first compound 0.08 µM)	relative viability (AZ505 + Dasatinib; first compound 0.253 µM)	relative viability (AZ505 + Dasatinib; first compound 0.8 µM)	relative viability (AZ505 + Dasatinib; first compound 2.53 µM)	relative viability (AZ505 + Dasatinib; first compound 8 µM)	relative viability (Dactolisib + Foretinib; first compound 0.002 µM)	relative viability (Dactolisib + Foretinib; first compound 0.006325 µM)	relative viability (Dactolisib + Foretinib; first compound 0.02 µM)	relative viability (Dactolisib + Foretinib; first compound 0.06325 µM)	relative viability (Dactolisib + Foretinib; first compound 0.2 µM)
HCC-78	0.726	0.851	0.69	0.445	0.312	0.619	0.72	0.557	0.546	0.587	0.336	0.411	0.333	0.445	0.425	0.629	0.589	0.451	0.376	0.338
IA-LM						0.59	0.867	0.835	0.866	0.896						1.28	1.07	0.837	0.497	0.453
NCI-H322M	0.583	0.561	0.447	0.436	0.44	1.29	1.15	1.39	1.22	1.34	0.24	0.233	0.239	0.261	0.273	1.08	0.89	0.73	0.629	0.578
NCI-H3122	0.207	0.218	0.232	0.219	0.176	1.01	1.02	1.07	1.04	1.03	0.729	0.829	0.806	0.661	0.899	0.932	0.934	1.05	1.03	0.855
SK-LU-1	0.476	0.657	0.392	0.34	0.283	0.703	0.561	0.778	0.923	0.761	0.182	0.168	0.163	0.161	0.16	0.806	0.713	0.575	0.382	0.245
COR-L23	0.602	0.453	0.305	0.176	0.144	0.996	1.1	0.888	0.925	0.832	0.351	0.427	0.358	0.383	0.475	1.2	0.982	0.948	0.369	0.34
NCI-H1793	0.418	0.359	0.244	0.231	0.196						0.345	0.439	0.394		0.439	0.655	0.416	0.241	0.2	0.166
NCI-H1792	0.498	0.407	0.267	0.174	0.0814	0.785	1.07	0.927	0.94	1	0.734		0.697	0.69	0.684					
NCI-H2342	0.825	0.72	0.811	0.538	0.54						0.312	0.317	0.316	0.346	0.351	1.1	0.96	0.855	0.679	0.525
NCI-H1299						1.01	1.05	0.926	0.998	1.01						1.09	1.1	1.11	0.982	1.06
SW 900	0.923	0.718	0.746	0.516	0.318						0.584	0.458	0.54	0.919	0.658	1.03	0.828	0.832	0.576	0.3
SK-MES-1	0.581	0.528	0.467	0.355	0.263						0.373	0.402	0.302	0.353	0.36	1.04	0.818	0.906	0.571	0.397
NCI-H1648	0.467	0.434	0.647	0.387	0.24															
NCI-H522	0.69	0.678	0.921	0.504	0.512						0.923	0.843	0.801	0.877	0.948					
LK-2	0.609	0.761	0.554	0.225	0.21						0.254	0.327	0.415	0.431	0.366	1.19	0.997	0.766	0.444	0.196
NCI-H1395	0.867	0.889	0.93	0.637	0.487						0.427	0.451	0.375	0.419	0.455	1.03	0.916	0.942	0.636	0.537
A549																1.03	0.84	0.678	0.202	0.21
NCI-H2170	0.925	0.881	0.845	0.478	0.35						0.541	0.608	0.444	0.695	0.509	0.995	1.01	0.895	0.85	0.174
NCI-H1563						0.846	0.743	0.83	0.766	0.922	0.456	0.467	0.498	0.481	0.432	0.919	0.885	0.913	0.654	0.651
ABC-1						0.31	0.281	0.303	0.313	0.256	0.539	0.524	0.542	0.58	0.515	1.03	1.11	0.665	0.427	0.5
